Among the test systems are OVCAR-8 ovarian; LOX IMVI melanoma; HL-60(TB) leukemia; SNB-75 CNS; HOP-92 NSCLC; SF-268 CNS; UACC-62 melanoma; OVCAR-5 ovarian; EKVX NSCLC; MDA-MB-231 breast.
Common to all, as to test: DTP human tumour cell line panel, 48 h

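Grown in 96-well plates, cells were treated for 48 hours with each compound at five concentrations. Insufficient inhibition: endpoint recorded as highest concentration tested. Abbreviation: GI50, concentration required for 50% inhibition of growth. TGI: total growth inhibition.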 Where only a bound is given, the exact number is not on record here.

As to `CCN1CCN(C(=O)[C@]23CC[C@@H](C)[C@H](C)[C@@H]2C2=CC[C@@H]4[C@@]5(C)C/C(=C/c6ccncc6)C(=O)C(C)(C)[C@@H]5CC[C@@]4(C)[C@]2(C)CC3)CC1`, the GI50 in the experiment with OVCAR-8 ovarian was 2260 nM; with LOX IMVI melanoma it was 1510 nM; in the experiment with HL-60(TB) leukemia it was 1900 nM; in the experiment on SNB-75 CNS, 1270 nM; in the experiment on HOP-92 NSCLC, 1140 nM; in the experiment on SF-268 CNS, 1640 nM. Besides, the GI50 in the experiment on UACC-62 melanoma was 1530 nM; with OVCAR-5 ovarian it was 1460 nM; in the experiment with EKVX NSCLC, 1470 nM; in the experiment with MDA-MB-231 breast, 1550 nM. The concentration for total growth inhibition (TGI) with OVCAR-8 ovarian worked out at 5750 nM; in the experiment with LOX IMVI melanoma it was 2980 nM; in the experiment with HL-60(TB) leukemia, 4900 nM; in the experiment on SNB-75 CNS it was 2670 nM; in the experiment with HOP-92 NSCLC it was 2510 nM; with SF-268 CNS it was 3130 nM. For the same compound, the TGI in the experiment with UACC-62 melanoma is 2870 nM; with OVCAR-5 ovarian, 2770 nM; in the experiment with EKVX NSCLC, 3410 nM; in the experiment on MDA-MB-231 breast, 2950 nM.
Consider `COc1ccc(/C=C2\CCC(CNc3cc(C)on3)C2=O)cc1` (stereo not given), for which the TGI in the experiment with OVCAR-8 ovarian was greater than 100000 nM; in the experiment with LOX IMVI melanoma, greater than 100000 nM; with HL-60(TB) leukemia it was greater than 21500 nM; with SNB-75 CNS it was greater than 76400 nM; in the experiment with HOP-92 NSCLC it was greater than 100000 nM; with SF-268 CNS, greater than 100000 nM. Moreover, the TGI with UACC-62 melanoma, in the experiment on OVCAR-5 ovarian, with EKVX NSCLC and with MDA-MB-231 breast was greater than 100000 nM in each case.
Take `COc1cc(Nc2nccc(Nc3ccc4c(C)[nH]nc4c3)n2)cc(OC)c1OC`: the GI50 is 3390 nM in the experiment with OVCAR-8 ovarian; 963 nM in the experiment on LOX IMVI melanoma; 3310 nM in the experiment on HL-60(TB) leukemia; 486 nM with SNB-75 CNS; 191 nM in the experiment with HOP-92 NSCLC; 2420 nM in the experiment with SF-268 CNS. The GI50 in the experiment with UACC-62 melanoma is 1080 nM; in the experiment on OVCAR-5 ovarian, 1800 nM; with EKVX NSCLC it was 1870 nM; in the experiment on MDA-MB-231 breast, 1760 nM. For the same compound, the concentration for total growth inhibition (TGI) with OVCAR-8 ovarian was 10200 nM; with LOX IMVI melanoma, 3980 nM; in the experiment on HL-60(TB) leukemia it was 9040 nM; in the experiment with SNB-75 CNS, 3220 nM; with HOP-92 NSCLC it was 1380 nM; with SF-268 CNS, 7890 nM. The TGI with UACC-62 melanoma is 4820 nM; with OVCAR-5 ovarian, 20800 nM; with EKVX NSCLC, 9190 nM; in the experiment on MDA-MB-231 breast it was 10500 nM.

As usually defined, the GI50 is the concentration giving 50% growth inhibition. By TGI is commonly meant the concentration at which net growth stops. Read a high TGI as lower sensitivity of the cells.
